Consider 25 compounds from patent EP4741386A1 (Jiangsu Yahong Meditech Co., Ltd., priority 2023, dated 2025).

In assay [1] the target is T1, Recombinant human His6-USP1/His6-UAF1 complex protein (Homo sapiens, UniProt O94782).
T1 construct: His6; purchased R&D E-568-050
Kind of assay: In vitro inhibitory activity against USP1 (Ubiquitin Rhodamine 110 fluorescence detection, 384-well plate). Format: biochemical. The settings on record: Ub-Rho substrate, 1 hour pre-incubation, read after 30 minutes. Summed up: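 Compounds, kept as 50 mM DMSO stocks, were acoustically dispensed into modified Tris buffer. Inhibition of recombinant human His6-USP1/His6-UAF1 was read by fluorescence from cleavage of Ub-Rho110 substrate.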

Another assay concerns MDA-MB-436. Kind of assay: CTG experiment for cell viability (CellTiter-Glo, 96-well plate, 7 days). Format: cell-based. The settings on record: Homo sapiens, MDA-MB-436, 168 h, MDA-MB-436 cells, 7 days culture with compound. As to the method: Test Example 2: CTG experiment for cell viability
• 1. Object: to screen USP1 inhibitors by a CTG assay, using a 96-well plate. • 2. Materials: • The cells used were MDA-MB-436 (manufacturer: Nanjing Cobioer Biotechnology Co., Ltd.) and cultured in DMEM medium, • CTG (CellTiter-Glo® Luminescent Cell Viability Assay kit) (Promega, Cat. No.: G7572), • 96-well plate (Corning, Cat. No.: 3610). • 3. Compounds: all compounds were dissolved in 100% DMSO to obtain 50 mM stock solutions. • 4. Experimental method: • ① Plating: The cells to be tested were spread into a 96-well plate at a certain density, with 200 µL per well, and 200 µL of cell medium was added to the blank wells. […] The cell plate with the compounds was placed in an incubator at 37°C, and further cultured for 7 days prior to detection. • ④ Assay: The substrate and the buffer of CTG kit were mixed evenly. The cell plate with the compounds in Step ③ was taken out from the incubator, and left at room temperature to equilibrate for 30 minutes. The medium containing the compounds was removed from the cell plate, 100 µL of PBS and 50 µL of CTG reagent were added to each well, shaken and mixed for 3 minutes, and then incubated for 10 minutes at room temperature. The plate was read by a BIotek microplate-reader, with a parameter set to 567 CPM. • 5. Curve fitting
It was the same as that for the enzyme.
(In ATP-based viability assays light output follows the ATP content of the culture.)

T1 sequence (O94782 whole entry): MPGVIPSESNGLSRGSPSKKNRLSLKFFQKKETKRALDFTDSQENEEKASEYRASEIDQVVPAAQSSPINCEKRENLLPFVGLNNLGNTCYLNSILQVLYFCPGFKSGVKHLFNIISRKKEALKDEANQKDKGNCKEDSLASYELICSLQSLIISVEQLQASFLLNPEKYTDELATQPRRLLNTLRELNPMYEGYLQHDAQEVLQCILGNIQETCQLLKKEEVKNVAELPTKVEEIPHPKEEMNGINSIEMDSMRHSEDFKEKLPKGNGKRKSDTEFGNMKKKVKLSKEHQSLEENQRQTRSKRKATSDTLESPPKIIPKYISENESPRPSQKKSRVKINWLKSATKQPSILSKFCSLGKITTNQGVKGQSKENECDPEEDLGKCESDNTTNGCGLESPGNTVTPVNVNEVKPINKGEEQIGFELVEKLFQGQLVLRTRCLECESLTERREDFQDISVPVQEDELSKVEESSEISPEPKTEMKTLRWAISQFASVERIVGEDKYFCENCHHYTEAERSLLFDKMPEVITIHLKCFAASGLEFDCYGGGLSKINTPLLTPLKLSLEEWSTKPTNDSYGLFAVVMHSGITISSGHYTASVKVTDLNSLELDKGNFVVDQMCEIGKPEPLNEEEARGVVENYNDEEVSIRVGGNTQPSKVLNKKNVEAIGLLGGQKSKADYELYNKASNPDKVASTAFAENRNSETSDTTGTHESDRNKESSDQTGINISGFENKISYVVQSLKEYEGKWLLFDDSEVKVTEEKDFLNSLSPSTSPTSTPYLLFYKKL
T1 sequence (Q8TAF3 whole entry partner): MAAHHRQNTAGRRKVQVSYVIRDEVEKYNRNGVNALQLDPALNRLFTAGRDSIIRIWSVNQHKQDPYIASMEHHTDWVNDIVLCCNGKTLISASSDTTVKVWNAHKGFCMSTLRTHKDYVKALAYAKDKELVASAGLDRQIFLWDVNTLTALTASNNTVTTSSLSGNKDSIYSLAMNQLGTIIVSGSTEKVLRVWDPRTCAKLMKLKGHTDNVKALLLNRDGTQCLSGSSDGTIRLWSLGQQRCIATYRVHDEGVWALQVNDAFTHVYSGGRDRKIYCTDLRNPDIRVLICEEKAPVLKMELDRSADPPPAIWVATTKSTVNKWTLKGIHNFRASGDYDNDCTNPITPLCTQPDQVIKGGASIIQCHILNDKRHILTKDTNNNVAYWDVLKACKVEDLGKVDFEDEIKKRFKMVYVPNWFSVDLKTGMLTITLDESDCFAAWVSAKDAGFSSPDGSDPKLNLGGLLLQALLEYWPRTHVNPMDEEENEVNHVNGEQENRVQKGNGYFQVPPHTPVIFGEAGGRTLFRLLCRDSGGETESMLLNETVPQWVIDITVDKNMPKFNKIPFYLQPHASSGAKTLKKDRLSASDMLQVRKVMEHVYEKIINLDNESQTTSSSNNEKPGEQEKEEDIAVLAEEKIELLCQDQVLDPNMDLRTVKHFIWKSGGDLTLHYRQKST

The term IC50 denotes the point on the concentration scale where inhibition reaches its midpoint. For the compound `COc1cnc(-c2ccccc2C(C)C)nc1NC[C@H]1CC[C@H](c2nc(C(F)(F)F)cn2C)CC1` [Example 6, 2-(2-Isopropylphenyl)-5-methoxy-N-(((1R,4R)-4-(1-methyl-4-(trifluoromethyl)-1H-imidazol-2-yl)cyclohexyl)methyl)pyrimidin-4-amine], the values for the IC50 (in assay [1]; with MDA-MB-436) were 1.2 nM and 2 nM, respectively.

Regarding `COc1cnc(-c2ccccc2C(C)C)nc1NCc1ccc(-n2nc(C(F)(F)F)cc2C)cc1` [Example 7, 2-(2-Isopropylphenyl)-5-methoxy-N-(4-(5-methyl-3-(trifluoromethyl)-1H-pyrazol-1-yl)benzyl)pyrimidin-4-amine], the IC50 in assay [1] turned out to be 4.5 nM; in the assay on MDA-MB-436, 102 nM.

For the compound `COc1cnc(-c2c(OC)ncnc2C2CC2)nc1N(C)Cc1ccc(-c2nc(C(F)(F)F)cn2C)cc1` [Example 8, 4'-Cyclopropyl-5,6'-dimethoxy-N-methyl-N-(4-(1-methyl-4-(trifluoromethyl)-1H-imidazol-2-yl)benzyl)-[2,5'-bipyrimidin]-4-amine], the IC50 in assay [1] was 1.4 nM; with MDA-MB-436, 2.3 nM.

On to `COc1cnc(-c2ccccc2C(C)C)nc1NCc1ccc(-c2nccn3ccnc23)cc1` [Example 11, N-(4-(Imidazo[1,2-a]pyrazin-8-yl)benzyl)-2-(2-isopropylphenyl)-5-methoxypyrimidin-4-amine], for which the concentration for half-maximal inhibition (IC50) in assay [1] is 22 nM; with MDA-MB-436, 751 nM.

Turning to `Cc1cc(C(F)(F)F)nn1-c1ccc(CN2C(=O)COc3cnc(-c4ccccc4C(C)C)nc32)cc1` [Example 15, 2-(2-Isopropylphenyl)-8-(4-(5-methyl-3-(trifluoromethyl)-1H-pyrazol-1-yl)benzyl)-6H-pyrimido[5,4-b][1,4]oxazin-7(8H)-one], the IC50 in assay [1] came to 6.8 nM; with MDA-MB-436, 301 nM.

As to `CC(C)c1ccccc1-c1ncc(C(F)(F)F)c(NCc2ccc(-c3nc(C(F)(F)F)cn3C)cc2)n1` [Example 17, 2-(2-Isopropylphenyl)-N-(4-(1-methyl-4-(trifluoromethyl)-1H-imidazol-2-yl)benzyl)-5-(trifluoromethyl)pyrimidin-4-amine], the figures for the IC50 (in assay [1]; in the assay with MDA-MB-436) were 3.9 nM and 103 nM, respectively.

`COc1cnc(-c2c(OC)ncnc2C2CC2)nc1N(C)Cc1ccc(-c2ccccn2)cc1` [Example 19, 4'-Cyclopropyl-5,6'-dimethoxy-N-methyl-N-(4-(pyridin-2-yl)benzyl)-[2,5'-bipyrimidin]-4-amine]: the IC50 in assay [1] was determined as 24 nM; with MDA-MB-436, 1.2 nM.

For the compound `COc1ncnc(C2CC2)c1-c1ncc2c(n1)N(CC1CCN(c3nc(C(F)(F)F)cn3C)CC1)CCO2` [Example 20, 2-(4-Cyclopropyl-6-methoxypyrimidin-5-yl)-8-((1-(1-methyl-4-(trifluoromethyl)-1H-imidazol-2-yl)piperidin-4-yl)methyl)-7,8-dihydro-6H-pyrimido[5,4-b][1,4] oxazine], the IC50 was 91.5 nM in assay [1] and 533 nM in the assay on MDA-MB-436.

With `COc1ncnc(C2CC2)c1-c1ncc2c(n1)N(C[C@H]1CC[C@H](c3nc(C(F)(F)F)cn3C)CC1)CCO2` [Example 22, 2-(4-Cyclopropyl-6-methoxypyrimidin-5-yl)-8-(((1r,4r)-4-(1-methyl-4-(trifluoromethyl)-1H-imidazol-2-yl)cyclohexyl)methyl)-7,8-dihydro-6H-pyrimido[5,4-b][1,4]oxazine], the figures for the half-inhibitory concentration (IC50) (in assay [1]; in the assay with MDA-MB-436) were 24.4 nM and 209 nM, respectively.

Take `COc1cnc(-c2ccccc2C(C)C)nc1NCC12CCC(c3ccc(C(F)(F)F)cn3)(CC1)CC2` [Example 23, 2-(2-Isopropylphenyl)-5-methoxy-N-((4-(5-(trifluoromethyl)pyridin-2-yl)bicyclo[2.2.2]octan-1-yl)methyl)pyrimidin-4-amine]: the half-maximal inhibitory concentration (IC50) in assay [1] stood at 33 nM; with MDA-MB-436, 33.1 nM.

On to `COc1cnc(-c2c(OC)ncnc2C2CC2)nc1NCc1ccc(-n2nc(C(F)(F)F)cc2C)cc1` [Example 26, 4'-Cyclopropyl-5,6'-dimethoxy-N-(4-(5-methyl-3-(trifluoromethyl)-1H-pyrazol-1-yl)benzyl)-[2,5'-bipyrimidin]-4-amine], for which the figures for the IC50 (in assay [1]; in the assay with MDA-MB-436) were 4.6 nM and 0.9 nM, respectively.

In the case of `COc1cnc(-c2c(OC)ncnc2C2CC2)nc1NCC12CCC(c3ccc(C(F)(F)F)cn3)(CC1)CC2` [Example 28], the results for the IC50 (in assay [1]; with MDA-MB-436) were 33 nM and 55.8 nM, respectively.

Regarding `CC(C)c1ccccc1-c1nc(NCc2ccc(-c3ccccn3)cc2)c2occc2n1` [Example 32, 2-(2-isopropylphenyl)-N-(4-(pyridin-2-yl)benzyl)furo [3,2-d] pyrimidin-4-amine], the values for the 50% inhibitory concentration (IC50) (in assay [1]; in the assay on MDA-MB-436) were 2.8 nM and 336 nM, respectively.

Take `CC(C)c1ccccc1-c1nc(NCc2ccc(-c3nc(C(F)(F)F)cn3C)cc2)c2occc2n1` [Example 33, 2-(2-Isopropylphenyl)-N-(4-(1-methyl-4-(trifluoromethyl)-1H-imidazol-2-yl)benzyl)furo[3,2-d]pyrimidin-4-amine]: the half-maximal inhibitory concentration (IC50) is 1.2 nM in assay [1] and 1.8 nM with MDA-MB-436.

As for `COc1ncnc(C2CC2)c1-c1nc(NCc2ccc(-c3nc(C(F)(F)F)cn3C)cc2)c2occc2n1` [Example 35, 2-(4-Cyclopropyl-6-methoxypyrimidin-5-yl)-N-(4-(1-methyl-4-(trifluoromethyl)-1H-imidazol-2-yl)benzyl)furo[3,2-d]pyrimidin-4-amine], the IC50 in assay [1] came to 9.6 nM; with MDA-MB-436, 45 nM.

Take `CC(C)c1ccccc1-c1nc(NCc2ccc(-c3ccccn3)cc2)c2[nH]ccc2n1` [Example 36, 2-(2-Isopropylphenyl)-N-(4-(pyridin-2-yl)benzyl)-5H-pyrrolo[3,2-d]pyrimidin-4-amine]: the half-maximal inhibitory concentration (IC50) was determined as 22.4 nM in assay [1] and 950 nM in the assay on MDA-MB-436.

As to `CC(C)c1ccccc1-c1ncc(Cl)c(NCc2ccc(-c3nc(C(F)(F)F)cn3C)cc2)n1` [Example 38, 5-Chloro-2-(2-isopropylphenyl)-N-(4-(1-methyl-4-(trifluoromethyl)-1H-imidazol-2-yl)benzyl)pyrimidin-4-amine], the IC50 in assay [1] was found to be 1.1 nM; with MDA-MB-436, 13.7 nM.

For the compound `CC(C)c1ccccc1-c1ncc(C#N)c(NCc2ccc(-c3nc(C(F)(F)F)cn3C)cc2)n1` [Example 39, 2-(2-Isopropylphenyl)-4-((4-(1-methyl-4-(trifluoromethyl)-1H-imidazol-2-yl)benzyl)amino)pyrimidine-5-carbonitrile], the results for the IC50 (in assay [1]; in the assay on MDA-MB-436) were 2.8 nM and 56.9 nM, respectively.

Turning to `CC(C)c1ccccc1-c1nc(NCc2ccc(-c3nc(C(F)(F)F)cn3C)cc2)c2ncccc2n1` [Example 40, 2-(2-Isopropylphenyl)-N-(4-(1-methyl-4-(trifluoromethyl)-1H-imidazol-2-yl)benzyl)pyrido[3,2-d]pyrimidin-4-amine], the concentration for half-maximal inhibition (IC50) in assay [1] came to 2.3 nM; in the assay with MDA-MB-436, 21.4 nM.

For `COc1ncnc(C2CC2)c1-c1nc(NCc2ccc(-n3nc(C(F)(F)F)cc3C)cc2)c2occc2n1` [Example 50, 2-(4-Cyclopropyl-6-methoxypyrimidin-5-yl)-N-(4-(5-methyl-3-(trifluoromethyl)-1H-pyrazol-1-yl)benzyl)furo[3,2-d]pyrimidin-4-amine], the IC50 in assay [1] was found to be 5.2 nM; in the assay on MDA-MB-436, 0.022 nM.

For `Cc1cc(C(F)(F)F)nn1-c1ccc(CNc2nc(-c3ccccc3C(C)C)nc3ccoc23)cc1` [Example 57, 2-(2-Isopropylphenyl)-N-(4-(5-methyl-3-(trifluoromethyl)-1H-pyrazol-1-yl)benzyl)furo[3,2-d]pyrimidin-4-amine], the figures for the IC50 (in assay [1]; in the assay with MDA-MB-436) were 4.4 nM and 48.3 nM, respectively.

As to `COc1cnc(-c2ccccc2C(C)C)nc1N(C)CC1CCC(c2ccccn2)CC1` (centres unmarked) [Example 61, 2-(2-isopropylphenyl)-5-methoxy-N-methyl-N-((4-(pyridin-2-yl)cyclohexyl)methyl)pyrimidin-4-amine], the IC50 was 11 nM in assay [1] and 813 nM with MDA-MB-436.

On to `COc1cnc(-c2ccccc2C(C)C)nc1N(C)CC1CCN(c2nc(C(F)(F)F)cn2C)CC1` [Example 62, 2-(2-Isopropylphenyl)-5-methoxy-N-methyl-N-((1-(1-methyl-4-(trifluoromethyl)-1H-imidazol-2-yl)piperidin-4-yl)methyl)pyrimidin-4-amine], for which the concentration for half-maximal inhibition (IC50) stood at 2.1 nM in assay [1] and 2.2 nM in the assay on MDA-MB-436.

As for `COc1cnc(-c2ccccc2C(C)C)nc1NCC1CCC(c2ccccn2)CC1` (centres unmarked) [Example 63, 2-(2-Isopropylphenyl)-5-methoxy-N-((4-(pyridin-2-yl)cyclohexyl)methyl)pyrimidin-4-amine], the half-inhibitory concentration (IC50) is 3.3 nM in assay [1] and 30 nM in the assay on MDA-MB-436.

As for `COc1cnc(-c2ccccc2C(C)C)nc1NCc1ccc(-c2ccccn2)cc1` [Example 64, 2-(2-Isopropylphenyl)-5-methoxy-N-(4-(pyridin-2-yl)benzyl)pyrimidin-4-amine], the IC50 was determined as 3.7 nM in assay [1] and 6.3 nM in the assay on MDA-MB-436.
